# Experimental data: ChEMBL document CHEMBL4373746, “Structural attributes influencing unbound tissue distribution” (Eur J Med Chem, 2020)
# Key:
# [1] = Total plasma concentration in Wistar Han rat at 1 to 2 mg/kg, iv infused for 10 to 20 hrs by LC-MS/MS analysis; conditions: in vivo
# [2] = Drug concentration in total white adipose tissue in Wistar Han rat at 1 to 2 mg/kg, iv infused for 10 to 20 hrs by LC-MS/MS analysis; conditions: in vivo
# [3] = Drug concentration in total brain in Wistar Han rat at 1 to 2 mg/kg, iv infused for 10 to 20 hrs by LC-MS/MS analysis; conditions: in vivo
# [4] = Drug concentration in total heart in Wistar Han rat at 1 to 2 mg/kg, iv infused for 10 to 20 hrs by LC-MS/MS analysis; conditions: in vivo
# [5] = Drug concentration in total liver in Wistar Han rat at 1 to 2 mg/kg, iv infused for 10 to 20 hrs by LC-MS/MS analysis; conditions: in vivo
# [6] = Drug concentration in total skeletal muscle in Wistar Han rat at 1 to 2 mg/kg, iv infused for 10 to 20 hrs by LC-MS/MS analysis; conditions: in vivo
# [7] = Unbound tissue partition coefficient, ratio of drug level in heart to plasma in Wistar Han rat at 1 to 2 mg/kg, iv infused for 10 to 20 hrs by LC-MS/MS analysis; conditions: heart/plasma
# [8] = Unbound tissue partition coefficient, ratio of drug level in brain to plasma in Wistar Han rat at 1 to 2 mg/kg, iv infused for 10 to 20 hrs by LC-MS/MS analysis; conditions: brain/plasma
# [9] = Unbound tissue partition coefficient, ratio of drug level in adipose to plasma in Wistar Han rat at 1 to 2 mg/kg, iv infused for 10 to 20 hrs by LC-MS/MS analysis; conditions: adipose/plasma
# [10] = Unbound tissue partition coefficient, ratio of drug level in liver to plasma in Wistar Han rat at 1 to 2 mg/kg, iv infused for 10 to 20 hrs by LC-MS/MS analysis; conditions: liver/plasma
# [11] = Unbound tissue partition coefficient, ratio of drug level in skeletal muscle to plasma in Wistar Han rat at 1 to 2 mg/kg, iv infused for 10 to 20 hrs by LC-MS/MS analysis; conditions: skeletal muscle/plasma
# [12] = Fraction unbound in Wistar Han rat plasma at 2 uM incubated for 6 hrs by equilibrium dialysis method
# [13] = Fraction unbound in Wistar Han rat white adipose tissue at 2 uM incubated for 6 hrs by equilibrium dialysis method
# [14] = Fraction unbound in Wistar Han rat brain at 2 uM incubated for 6 hrs by equilibrium dialysis method
# [15] = Fraction unbound in Wistar Han rat heart at 2 uM incubated for 6 hrs by equilibrium dialysis method
# [16] = Fraction unbound in Wistar Han rat liver at 2 uM incubated for 6 hrs by equilibrium dialysis method
# [17] = Fraction unbound in Wistar Han rat skeletal muscle at 2 uM incubated for 6 hrs by equilibrium dialysis method
# [18] = Apparent permeability of the compound across dog RRCK cells by MDCK-LE assay
Structure (SMILES),Cp [1],Ct [2],Ct [3],Ct [4],Ct [5],Ct [6],Kp uu [7],Kp uu [8],Kp uu [9],Kp uu [10],Kp uu [11],"fraction unbound at 6 h, 2 µM [12]","fraction unbound at 6 h, 2 µM [13]","fraction unbound at 6 h, 2 µM [14]","fraction unbound at 6 h, 2 µM [15]","fraction unbound at 6 h, 2 µM [16]","fraction unbound at 6 h, 2 µM [17]",Papp [18]
O=C(O)C(=O)Nc1ccc(NC(=O)[C@H](CC2CCCC2)n2cnc(C(F)(F)F)c2)nc1,110 ng/mL,0.77 ng/mL,0.38 ng/mL,20 ng/mL,300 ng/mL,0.9 ng/mL,0.75,0.0018,0.024,7.2,0.02,–,–,–,–,–,–,–
O=C(NC1CCCC1)C1CCN(c2nc3cc(Cl)ccc3o2)CC1,310 ng/mL,330 ng/mL,88 ng/mL,150 ng/mL,210 ng/mL,59 ng/mL,2.2,0.64,3.9,4.3,0.61,0.00646,0.0248,0.0144,0.0292,0.0414,0.02,35 ×10⁻⁶ cm/s
Nc1noc2ccc(-c3cc(Cl)ccc3Oc3cc(F)c(S(=O)(=O)Nc4cscn4)cc3F)cc12,36 ng/mL,11 ng/mL,0.38 ng/mL,54 ng/mL,1.4 ng/mL,18 ng/mL,0.9,0.0018,2.4,0.033,0.54,0.00155,0.0123,0.00141,0.000968,0.00176,0.00165,3.8 ×10⁻⁶ cm/s
CC1(OC(=O)N2CCC(n3ncc(COc4ccc(C(N)=O)cc4F)c3C#N)CC2)CC1,150 ng/mL,73 ng/mL,40 ng/mL,220 ng/mL,520 ng/mL,100 ng/mL,2.8,0.24,1.6,4.7,1,0.044,0.137,0.0366,0.0693,0.0561,0.0634,26 ×10⁻⁶ cm/s
CC(C)n1ncc2c1C(=O)CC1(CCN(C(=O)c3ccc4[nH]nc(C(N)=O)c4c3)CC1)C2,65 ng/mL,17 ng/mL,0.38 ng/mL,62 ng/mL,500 ng/mL,30 ng/mL,1.1,0.0018,0.98,7.9,0.76,0.119,0.398,0.0763,0.121,0.108,0.172,3.6 ×10⁻⁶ cm/s
O=c1[nH]c(=S)n(CCO)c2cc[nH]c12,32 ng/mL,0.86 ng/mL,3.7 ng/mL,45 ng/mL,70 ng/mL,38 ng/mL,1.1,0.048,0.027,1.9,0.41,0.817,1,0.347,0.667,0.696,0.276,1.7 ×10⁻⁶ cm/s
CC(=O)N1CCN(c2ccc(OCC3COC(Cn4ccnc4)(c4ccc(Cl)cc4Cl)O3)cc2)CC1 (configuration not stated) [KETOCONAZOLE],–,–,–,–,–,–,–,–,–,–,–,–,–,–,–,–,–,4.2 ×10⁻⁶ cm/s

# More lines, now with the values ahead:
Cp [1],Ct [2],Ct [3],Ct [4],Ct [5],Ct [6],Kp uu [7],Kp uu [8],Kp uu [9],Kp uu [10],Kp uu [11],"fraction unbound at 6 h, 2 µM [12]","fraction unbound at 6 h, 2 µM [13]","fraction unbound at 6 h, 2 µM [14]","fraction unbound at 6 h, 2 µM [15]","fraction unbound at 6 h, 2 µM [16]","fraction unbound at 6 h, 2 µM [17]",Papp [18],Structure (SMILES)
66 ng/mL,270 ng/mL,52 ng/mL,110 ng/mL,380 ng/mL,75 ng/mL,1.7,0.46,2.3,6.2,1.5,0.178,0.101,0.103,0.171,0.195,0.23,30 ×10⁻⁶ cm/s,Cc1nc([C@@H]2CCOC2)c2c(N3CCc4c(c(C5CC5)nn4C)C3)ncnn12
93 ng/mL,13 ng/mL,22 ng/mL,130 ng/mL,520 ng/mL,29 ng/mL,1.4,0.12,0.86,3.9,0.45,0.00965,0.0597,0.00498,0.00954,0.00676,0.0139,38 ×10⁻⁶ cm/s,Cc1c(C(=O)O)cnn1-c1nc(-c2cccc(C(F)(F)F)c2)cs1
110 ng/mL,16 ng/mL,3.7 ng/mL,100 ng/mL,1000 ng/mL,67 ng/mL,1.2,0.032,0.38,11,0.8,0.298,0.803,0.294,0.399,0.368,0.403,19 ×10⁻⁶ cm/s,COc1cc2c(OC[C@H]3NC(=O)[C@@H]4C[C@]34C)nccc2cc1C(N)=O
76 ng/mL,6 ng/mL,0.38 ng/mL,100 ng/mL,540 ng/mL,69 ng/mL,0.8,0.0018,0.21,4.4,0.87,0.0645,0.179,0.0216,0.0378,0.0393,0.0611,14 ×10⁻⁶ cm/s,Cn1cnc(-c2ccc(O[C@H]3CCN(C(=O)Cc4ccc(OC(F)(F)F)cc4)C[C@@H]3F)c(C(N)=O)c2)c1
83 ng/mL,5.7 ng/mL,0.42 ng/mL,44 ng/mL,4200 ng/mL,21 ng/mL,0.77,0.0037,0.1,49,0.21,0.214,0.309,0.183,0.311,0.205,0.174,1.4 ×10⁻⁶ cm/s,CN(C)C(=O)c1cc(CC(=O)O)ccc1NC(=O)c1ccccc1-c1ccc(C(F)(F)F)cc1
